Measured values from US7553969B1, “Substituted phenethylamine derivatives” (Chugai Seiyaku Kabushiki Kaisha, priority 1999, dated 2009).
Where a SMILES comes first, the peptide text is derived from it. [ ]: non-standard residue; d: D form. NMeTyr(3-tBu) = CN[C@@H](Cc1ccc(O)c(C(C)(C)C)c1)C(=O)O; Tyr(3-tBu) = CC(C)(C)c1cc(C[C@H](N)C(=O)O)ccc1O; Phe(3,4-F2) = N[C@@H](Cc1ccc(F)c(F)c1)C(=O)O; NMePhe(4-F) = CN[C@@H](Cc1ccc(F)cc1)C(=O)O; Tyr(3-F) = N[C@@H](Cc1ccc(O)c(F)c1)C(=O)O; Phe(4-Cl) = N[C@@H](Cc1ccc(Cl)cc1)C(=O)O; Phe(3-F) = N[C@@H](Cc1cccc(F)c1)C(=O)O; Phe(4-F) = N[C@@H](Cc1ccc(F)cc1)C(=O)O; NMeV = CN[C@H](C(=O)O)C(C)C

Legend:
motilin receptor = molecular target: T1, motilin receptor (Oryctolagus cuniculus, UniProt G1T803); test: Motilin receptor binding test (125I motilin, rabbit duodenum protein sample); conditions: 125I motilin 25 pM, concentration reducing specific binding by 50%
T1 construct: homogenized in 50 mM Tris buffer to prepare a protein sample; from tissue; host or cells: rabbit duodenum homogenate (mucous membrane separated)
Description: Motilin receptor binding test
A motilin receptor binding test was conducted in the following manner [Vantrappen et al., Regul. Peptides, 15, 143 (1986)]. The duodenum was extracted from a slaughtered rabbit, had the mucous membrane separated and homogenized in 50 mM Tris buffer to prepare a protein sample. The protein sample was incubated together with ^125I motilin 25 pM and thereafter the radioactivity bound to the protein was measured. Specific binding was defined as the difference between the radioactivity in the case of adding a great excess amount of motilin (10^−7 M) and that in the case of no adding. The activity of the compound was expressed by IC50 (in nM), as the concentration sufficient to reduce the specific binding by 50%.

[1] = system: specimen of longitudinal muscle in the duodenum extracted from a rabbit (motilin-induced contraction); test: Action on the motilin-induced contraction of a specimen of longitudinal muscle in the duodenum extracted from a rabbit; conditions: Oryctolagus cuniculus, organ bath, Krebs solution 28° C., read-out: Contraction suppressing test, pA2 (converted)
Description: Action on the Contraction of a Specimen of Longitudinal Muscle in the Duodenum Extracted from a Rabbit
The action on the motilin-induced contraction of a specimen of longitudinal muscle in the duodenum extracted from a rabbit was investigated by the following method. A duodenum specimen (5×15 mm) extracted from a slaughtered rabbit was suspended in an organ bath (10 ml) such that the longitudinal muscle would run vertically; the bath was filled with a Krebs solution kept at 28° C. A mixed gas (95% O2 and 5% CO2) was continuously bubbled into the Krebs solution and the contraction of the duodenum specimen was recorded isotonically (with a 1-g load) via an isotonic transducer (ME-3407, ME Commercial, Tokyo, Japan). The degree of contraction was expressed in relative values, with the contraction by acetylcholine at a dose of 10^−4 M being taken as 100%. The activity of the compound was calculated as pA2 value indicating its effect on the dose-dependent muscle contraction by the motilin put into the organ bath.

T1 sequence (G1T803 1-400): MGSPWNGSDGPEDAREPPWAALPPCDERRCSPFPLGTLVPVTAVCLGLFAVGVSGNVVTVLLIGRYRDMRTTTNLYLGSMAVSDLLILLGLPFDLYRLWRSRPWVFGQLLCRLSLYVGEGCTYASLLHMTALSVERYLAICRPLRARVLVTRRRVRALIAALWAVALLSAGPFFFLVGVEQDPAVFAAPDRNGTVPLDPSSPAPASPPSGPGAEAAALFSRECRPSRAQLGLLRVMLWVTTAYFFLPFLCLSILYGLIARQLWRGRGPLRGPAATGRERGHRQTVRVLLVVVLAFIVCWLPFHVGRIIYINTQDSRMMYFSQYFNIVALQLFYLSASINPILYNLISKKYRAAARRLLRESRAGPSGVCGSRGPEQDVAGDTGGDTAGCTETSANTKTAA

Compound | IC50 (motilin receptor) [pM] | Kb [1] [pM]
Cc1cc(=O)[nH]c([C@H](Cc2ccc(O)c(C(C)(C)C)c2)NC(=O)[C@H](C(C)C)N(C)C(=O)[C@@H](N)Cc2ccc(F)cc2)n1 (single isomer, unassigned) [Example 19, 2-(1-(2-((2-amino-3-(4-fluorophenyl)propionyl)-N-methylamino)-3-methyl-butyrylamino)-2-(3-tert-butyl-4-hydroxyphenyl)ethyl)-6-methyl-4-pyrimidinone] | 2200 | 2000
CC(C)[C@@H](C(=O)N[C@@H](Cc1ccc(O)c(C(C)(C)C)c1)c1nccs1)N(C)C(=O)[C@@H](N)Cc1ccc(F)cc1 (single isomer, unassigned) [Example 23, 2-((2-amino-3-(4-fluorophenyl)propionyl)-N-methylamino)-3-methylbutyric acid 2-(3-tert-butyl-4-hydroxyphenyl)-1-(thiazol-2-yl)ethylamide] | 670 | 501
CC(C)[C@@H](C(=O)N(C)[C@@H](Cc1ccc(O)c(C(C)(C)C)c1)C(N)=O)N(C)C(=O)[C@@H](N)Cc1ccc(F)cc1 [Example 1, Phe(4-F)-N-Me-Val-N-Me-Tyr(3-tBu)-NH2] (H-[Phe(4-F)]-[NMeV]-[NMeTyr(3-tBu)]-NH2) | 890 | 1580
CC(C)[C@@H](C(=O)N(C)[C@@H](Cc1ccc(O)c(C(C)(C)C)c1)C(N)=O)N(C)C(=O)[C@@H](N)Cc1ccc(Cl)cc1 [Example 2, Phe(4-Cl)-N-Me-Val-N-Me-Tyr(3-tBu)-NH2] (H-[Phe(4-Cl)]-[NMeV]-[NMeTyr(3-tBu)]-NH2) | 710 | 2000
CC(C)[C@@H](C(=O)N(C)[C@@H](Cc1ccc(O)c(C(C)(C)C)c1)C(N)=O)N(C)C(=O)[C@@H](N)Cc1ccc(F)c(F)c1 [Example 3, Phe(3,4-F2)-N-Me-Val-N-Me-Tyr(3-tBu)-NH2] (H-[Phe(3,4-F2)]-[NMeV]-[NMeTyr(3-tBu)]-NH2) | 1500 | 2000
CC(C)[C@@H](C(=O)N(C)[C@@H](Cc1ccc(O)c(C(C)(C)C)c1)C(N)=O)N(C)C(=O)[C@@H](N)Cc1cccc(F)c1 [Example 4, Phe(3-F)-N-Me-Val-N-Me-Tyr(3-tBu)-NH2] (H-[Phe(3-F)]-[NMeV]-[NMeTyr(3-tBu)]-NH2) | 1600 | 5010
CC(C)[C@@H](C(=O)N[C@@H](Cc1ccc(O)c(C(C)(C)C)c1)C(=O)Nc1ccccn1)N(C)C(=O)[C@@H](N)Cc1ccc(F)cc1 [Example 8, 2-((2-amino-3-(4-fluorophenyl)propionyl)-N-methylamino)-3-methylbutyric acid 2-(3-tert-butyl-4-hydroxyphenyl)-1-(2-pyridylcarbamoyl)ethylamide] | 350 | 316
CC(C)[C@@H](C(=O)N[C@H](CNC(N)=O)Cc1ccc(O)c(C(C)(C)C)c1)N(C)C(=O)[C@@H](N)Cc1ccc(F)cc1 [Example 9, N-(2-(2-((2-amino-3-(4-fluorophenyl)propionyl)-N-methylamino)-3-methylbutyrylamino)-3-(3-tBu-4-hydroxyphenyl)propyl)urea] | 1000 | 1000
CC(C)[C@@H](C(=O)N[C@H](CNS(N)(=O)=O)Cc1ccc(O)c(C(C)(C)C)c1)N(C)C(=O)[C@@H](N)Cc1ccc(F)cc1 [Example 12, 2-(2-(2-amino-3-(4-fluorophenylpropanoyl-N-methylamino)-3-methyl)butyrylamino)-3-(3-tert-butyl-4-hydroxyphenyl)propylsulfamide] | 520 | 501
CC(C)[C@@H](C(=O)N[C@H](CNS(C)(=O)=O)Cc1ccc(O)c(C(C)(C)C)c1)N(C)C(=O)[C@@H](N)Cc1ccc(F)cc1 [Example 14, N-[2-(3-tert-butyl-4-hydroxyphenyl)-1-(methanesulfonylaminomethyl)ethyl]-2-[N-(4-fluorophenylalaminoyl)methylamino]-3-methylbutanamide] | 700 | 501
CC(C)[C@@H](C(=O)N[C@H](CC(N)=O)Cc1ccc(O)c(C(C)(C)C)c1)N(C)C(=O)[C@@H](N)Cc1ccc(F)cc1 [Example 15, 2-((2-amino-3-(4-fluorophenyl)propionyl)-N-methylamino)-3-methylbutyric acid 2-(3-t-butyl-4-hydroxyphenyl)-1-carbamidomethylethylamide] | 820 | 3160
CC(C)[C@@H](C(=O)N[C@@H](Cc1ccc(O)c(C(C)(C)C)c1)CS(C)(=O)=O)N(C)C(=O)[C@@H](N)Cc1ccc(F)cc1 [Example 16, 2-((2-amino-3-(4-fluorophenyl)propionyl)-N-methylamino)-3-methylbutyric acid 2-(3-t-butyl-4-hydroxyphenyl)-1-methanesulfonylmethylethylamide] | 410 | 398
CC(C)[C@@H](C(=O)N[C@H](CO)Cc1ccc(O)c(C(C)(C)C)c1)N(C)C(=O)[C@@H](N)Cc1ccc(F)cc1 [Example 17, 2-(2-((2-amino-3-(4-fluorophenyl)propionyl)-N-methylamino)-3-methyl-butyrylamino)-3-(3-tBu-4-hydroxyphenyl)propanol] | 700 | 794
CC(C)[C@@H](C(=O)N[C@@H](Cc1ccc(O)c(C(C)(C)C)c1)c1nnco1)N(C)C(=O)[C@@H](N)Cc1ccc(F)cc1 [Example 21, 2-((2-amino-3-(4-fluorophenyl)propionyl)-N-methylamino)-3-methylbutyric acid 2-(3-t-butyl-4-hydroxyphenyl)-1-(1,3,4-oxadiazol-2-yl)ethylamide] | 270 | 158
CC(C)[C@@H](C(=O)N[C@@H](Cc1ccc(O)c(C(C)(C)C)c1)c1ncno1)N(C)C(=O)[C@@H](N)Cc1ccc(F)cc1 [Example 22, 2-((2-amino-3-(4-fluorophenyl)propionyl)-N-methylamino)-3-methylbutyric acid 2-(3-t-butyl-4-hydroxyphenyl)-1-(1,2,4-oxadiazol-5-yl)ethylamide] | 520 | 5010
CC(C)[C@@H](C(=O)N[C@@H](Cc1ccc(O)c(C(C)(C)C)c1)c1nnc[nH]1)N(C)C(=O)[C@@H](N)Cc1ccc(F)cc1 [Example 24, 2-((2-amino-3-(4-fluorophenyl)propionyl)-N-methylamino)-3-methylbutyric acid 2-(3-t-butyl-4-hydroxyphenyl)-1-(1,3,4-triazol-2-yl)ethylamide] | 940 | 794
CC(C)[C@@H](C(=O)N(C)[C@@H](Cc1ccc(O)c(C(C)(C)C)c1)C(N)=O)N(C)C(=O)[C@@H](N)Cc1ccc(O)cc1F [Example 26, Tyr(2-F)-N-Me-Val-N-Me-Tyr(3-tBu)-NH2] | 7300 | 10000
CC(C)[C@@H](C(=O)N(C)[C@@H](Cc1ccc(O)c(C(C)(C)C)c1)C(N)=O)N(C)C(=O)[C@@H](N)Cc1ccc(O)c(F)c1 [Example 27, Tyr(3-F)-N-Me-Val-N-Me-Tyr(3-tBu)-NH2] (H-[Tyr(3-F)]-[NMeV]-[NMeTyr(3-tBu)]-NH2) | 1200 | 2510
CC(C)[C@@H](C(=O)N[C@@H](Cc1ccc(O)c(C(C)(C)C)c1)C(N)=O)N(C)C(=O)[C@@H](N)Cc1ccc(F)cc1 [Example 28, Phe(4-F)-N-Me-Val-Tyr(3-tBu)-NH2] (H-[Phe(4-F)]-[NMeV]-[Tyr(3-tBu)]-NH2) | 520 | 1000
CN[C@@H](Cc1ccc(F)cc1)C(=O)N(C)[C@H](C(=O)N[C@@H](Cc1ccc(O)c(C(C)(C)C)c1)C(N)=O)C(C)C [Example 29, N-Me-Phe(4-F)-N-Me-Val-Tyr(3-tBu)-NH2] (H-[NMePhe(4-F)]-[NMeV]-[Tyr(3-tBu)]-NH2) | 450 | 2000
CCN[C@@H](Cc1ccc(F)cc1)C(=O)N(C)[C@H](C(=O)N[C@@H](Cc1ccc(O)c(C(C)(C)C)c1)C(N)=O)C(C)C [Example 30, N-Et-Phe(4-F)-N-Me-Val-Tyr(3-tBu)-NH2] | 810 | 794
CNC(=O)[C@H](Cc1ccc(O)c(C(C)(C)C)c1)NC(=O)[C@H](C(C)C)N(C)C(=O)[C@@H](N)Cc1ccc(F)cc1 [Example 31, Phe(4-F)-N-Me-Val-Tyr(3-tBu)-NHMe] (H-[Phe(4-F)]-[NMeV]-[Tyr(3-tBu)]-NHMe) | 790 | 316
CNC(=O)[C@H](Cc1ccc(O)c(C(C)(C)C)c1)NC(=O)[C@H](C(C)C)N(C)C(=O)[C@H](Cc1ccc(F)cc1)NC [Example 32, N-Me-Phe(4-F)-N-Me-Val-Tyr(3-tBu)-NHMe] (H-[NMePhe(4-F)]-[NMeV]-[Tyr(3-tBu)]-NHMe) | 760 | 794
CCN[C@@H](Cc1ccc(F)cc1)C(=O)N(C)[C@H](C(=O)N[C@@H](Cc1ccc(O)c(C(C)(C)C)c1)C(=O)NC)C(C)C [Example 33, N-Et-Phe(4-F)-N-Me-Val-Tyr(3-tBu)-NHMe] | 1700 | 3980
CN[C@@H](Cc1ccc(F)cc1)C(=O)N(C)[C@H](C(=O)N(C)[C@@H](Cc1ccc(O)c(C(C)(C)C)c1)C(N)=O)C(C)C [Example 34, N-Me-Phe(4-F)-N-Me-Val-N-Me-Tyr(3-tBu)-NH2] (H-[NMePhe(4-F)]-[NMeV]-[NMeTyr(3-tBu)]-NH2) | 1500 | 398
